# Laboratory results published in PMC8027839 (Scientific Reports, 2021).
# Entries after “also recorded” stand apart in the source; their conditions may differ. Where two headings read alike, the source gives them in different places.
# Columns and labels:
# [1] = molecular target: T1, SapM (Mycobacterium tuberculosis, UniProt O53361); assay: biochemical; type: biochemical; conditions: for remaining activity at 100 µM: 0.5 h, read-out: %SA (percentage specific activity of SapM); for inhibition at 100 µM: read-out: inhibition of SapM activity (reduction in SA)
# T1 construct: made in house; host or cells: Escherichia coli C41 (DE3)
# T1 sequence (O53361 44-299): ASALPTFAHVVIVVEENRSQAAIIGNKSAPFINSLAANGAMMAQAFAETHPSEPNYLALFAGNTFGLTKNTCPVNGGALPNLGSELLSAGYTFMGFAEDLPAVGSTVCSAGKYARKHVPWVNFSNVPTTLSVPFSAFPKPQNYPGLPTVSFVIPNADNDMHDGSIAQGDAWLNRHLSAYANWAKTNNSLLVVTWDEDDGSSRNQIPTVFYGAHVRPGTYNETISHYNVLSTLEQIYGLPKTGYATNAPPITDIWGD
# [2] = molecular target: T1, SapM; parameters: method as in PMID 31312014; conditions: previously reported; cited from earlier work
# [3] = molecular target: MptpA (Mycobacterium tuberculosis, UniProt P9WIA1); assay: biochemical; conditions: pH 6
# [4] = molecular target: MptpB (Mycobacterium tuberculosis, UniProt I6WXK4); assay: biochemical; conditions: pH 6
# [5] = molecular target: T2, PTP1B (Homo sapiens, UniProt P18031); assay: hPTP1B inhibition, pNPP assay; type: biochemical
# T2 sequence (P18031 1-435): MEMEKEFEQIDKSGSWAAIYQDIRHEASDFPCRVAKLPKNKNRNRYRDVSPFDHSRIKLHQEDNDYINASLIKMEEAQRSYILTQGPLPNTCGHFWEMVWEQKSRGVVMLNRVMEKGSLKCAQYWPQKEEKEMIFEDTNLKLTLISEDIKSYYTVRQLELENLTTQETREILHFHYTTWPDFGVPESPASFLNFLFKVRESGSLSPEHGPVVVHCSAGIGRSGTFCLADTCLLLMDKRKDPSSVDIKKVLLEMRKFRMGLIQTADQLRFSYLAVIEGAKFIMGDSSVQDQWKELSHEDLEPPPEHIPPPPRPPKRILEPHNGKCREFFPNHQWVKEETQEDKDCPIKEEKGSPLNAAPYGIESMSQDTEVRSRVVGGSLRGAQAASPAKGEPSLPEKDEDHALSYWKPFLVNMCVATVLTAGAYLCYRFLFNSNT
# [6] = molecular target: VHR (Homo sapiens, UniProt P51452); assay: hVHR inhibition, pNPP assay; type: biochemical
# [7] = molecular target: T1, SapM; assay: Type of inhibition of SapM, Lineweaver-Burk plots; type: biochemical
# Text: To determine the type of inhibition different inhibitor concentrations were selected to yield around 30% and 75% inhibition for each concentration of pNPP. This ensures sufficient signal to obtain accurate data while allowing a significant inhibition effect. Velocity (V) was plotted as a function of pNPP concentration and fit in a Lineweaver–Burk plot (double-reciprocal) using GraphPad Prism 8.41. All assays were done in 96-well microplates and performed in triplicate in at least two independent experiments.
# [8] = molecular target: T1, SapM; assay: Microscale thermophoresis of SapM binding; conditions: for EC50: MST titration
# Description: Microscale thermophoresis (MST) was used to study the direct binding interaction of SapM with three compounds 1, 2 and 13. SapM was labelled with NTA-647nm dye which attaches to the 6-histidine tag. 100 nM NTA-647 was incubated with 200 nM SapM for 1-hour at 4 °C and then centrifuged at 20,000 rcf for 20 minutes at 4 °C in 20 mM HEPES, 200 mM NaCl pH 7.0. 10 mM compound was diluted to 500 μM in the same buffer. Binding checks were carried out with labelled SapM (5 nM) with and without 250 nM compound with LED power of 20% and a medium MST power in a Monolith Pico instrument and using standard capillaries. Binding analysis was performed with a doubling serial dilution from 250 nM with 16 dilutions and a constant concentration of 5 nM labelled SapM.
# [9] = Compound precipitation in enzyme assays; type: physicochemical; conditions: SapM dose-response assay
# [10] = molecular target: AcpA (Francisella tularensis subsp. novicida, UniProt A0Q436); assay: biochemical
# [11] = test system: M. bovis BCG ΔsapM; type: cell-based; conditions: 40 µM
# [12] = test system: Mtb H37Rv strain; assay: Mycobacterium tuberculosis infection assay in THP-1 macrophages; type: cell-based; conditions: resting THP-1 macrophages; 1 µM and 40 µM; 24 h and 72 h post infection
# [13] = test system: M. bovis BCG wild-type; type: cell-based; conditions: Raw 264.7 macrophages; 40 µM; 72 h post-infection; vs DMSO
# [14] = compounds at 100 µM, relative to pNPP DMSO control
# Chain of MptpA (P9WIA1 whole entry): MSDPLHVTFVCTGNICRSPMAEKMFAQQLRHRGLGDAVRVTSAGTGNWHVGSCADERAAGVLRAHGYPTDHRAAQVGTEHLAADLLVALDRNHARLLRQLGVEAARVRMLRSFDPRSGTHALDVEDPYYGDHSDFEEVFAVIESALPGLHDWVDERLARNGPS
# Chain of MptpB (I6WXK4 whole entry, looked up): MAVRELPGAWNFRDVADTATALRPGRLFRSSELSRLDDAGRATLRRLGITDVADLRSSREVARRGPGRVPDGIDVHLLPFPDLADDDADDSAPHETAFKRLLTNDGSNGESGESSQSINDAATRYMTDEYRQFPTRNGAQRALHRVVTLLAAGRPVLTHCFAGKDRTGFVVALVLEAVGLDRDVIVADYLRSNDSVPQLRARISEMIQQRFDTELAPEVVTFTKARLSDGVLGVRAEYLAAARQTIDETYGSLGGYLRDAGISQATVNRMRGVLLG
# Chain of VHR (P51452 whole entry): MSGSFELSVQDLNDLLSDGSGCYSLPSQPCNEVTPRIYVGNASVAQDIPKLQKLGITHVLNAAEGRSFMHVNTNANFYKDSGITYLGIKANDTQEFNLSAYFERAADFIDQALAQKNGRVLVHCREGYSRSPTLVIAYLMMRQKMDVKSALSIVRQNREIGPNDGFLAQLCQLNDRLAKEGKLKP
# Chain of AcpA (A0Q436 21-514 limits assumed): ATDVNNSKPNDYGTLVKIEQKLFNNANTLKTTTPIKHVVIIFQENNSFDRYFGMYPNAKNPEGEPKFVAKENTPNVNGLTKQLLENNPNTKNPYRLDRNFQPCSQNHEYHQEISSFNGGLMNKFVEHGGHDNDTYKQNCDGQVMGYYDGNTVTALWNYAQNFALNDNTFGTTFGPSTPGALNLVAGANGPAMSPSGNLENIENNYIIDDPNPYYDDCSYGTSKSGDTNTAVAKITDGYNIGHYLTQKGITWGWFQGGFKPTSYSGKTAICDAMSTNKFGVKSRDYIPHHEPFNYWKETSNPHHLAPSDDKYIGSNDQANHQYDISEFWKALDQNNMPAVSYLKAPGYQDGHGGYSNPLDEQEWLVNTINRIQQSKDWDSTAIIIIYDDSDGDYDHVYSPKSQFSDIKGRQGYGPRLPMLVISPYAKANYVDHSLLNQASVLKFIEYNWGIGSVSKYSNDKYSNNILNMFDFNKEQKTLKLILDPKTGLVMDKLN
compound,measurement,setting,value
"N#CC(C#N)=Cc1ccc([N+](=O)[O-])c(O)c1 [Compound 19, Tyrphostin AG 126]",%SA (percentage specific activity of SapM),[1]; [14],99.0 ± 5.5%
"O=C1O[C@H]([C@@H](O)CO)C(O)=C1O [L-AC, L-ascorbic acid]",IC50,[2],> 200 µM
Tyrphostin AG 114 [Compound 15],%SA (percentage specific activity of SapM),[1]; [14],48.6 ± 1.1%
same,IC50,"[1]; pNPP assay, dose-response",78.4 ± 2.7 µM
"N#CC(=Cc1ccc2[nH]ccc2c1)C(N)=C(C#N)C#N [Compound 18, Tyrphostin AG 370]",%SA (percentage specific activity of SapM),[1]; [14],94.6 ± 3.1%
"Oc1cc(O)c2c(c1)O[C@H](c1ccc(O)c(O)c1)[C@@H](O)C2 [Compound 33, (+)-Catechin]",%SA (percentage specific activity of SapM),[1]; [14],95.9 ± 12.3%
"O=c1c(-c2ccc(O)cc2)coc2cc(O)ccc12 [Compound 23, Daidzein]",remaining activity at 100 µM,[1]; [14],108 ± 17.2%
"Oc1cc(O)c2c(c1)O[C@H](c1ccc(O)c(O)c1)[C@H](O)C2 [Compound 32, (−)-Epicatechin]",remaining activity at 100 µM,[1]; [14],97.9 ± 7.2%
"O.O.O=c1c(O)c(-c2ccc(O)c(O)c2)oc2cc(O)cc(O)c12 [Compound 28, Quercetin dehydrate]",effect on SapM enzyme activity,[1]; compounds at 100 µM,none or poor activity
same,%SA (percentage specific activity of SapM),[1]; [14],78.9 ± 9.2%
"O=c1c(O)c(-c2cc(O)c(O)c(O)c2)oc2cc(O)cc(O)c12 [Compound 26, Myricetin]",remaining activity at 100 µM,[1]; [14],84 ± 6.2%
same,effect on SapM enzyme activity,[1]; compounds at 100 µM,none or poor activity
"N#CC(C#N)=C(N)/C(C#N)=C/c1cc(O)c(O)c(O)c1 [Compound 13, Tyrphostin AG 183]",IC50,[3]; pNPP assay,16.7 ± 1 µM
same,IC50,[4]; pNPP assay,> 100 µM
same,effect on SapM enzyme activity,[1]; compounds at 100 µM,completely abolished enzyme activity; also recorded: abolished enzyme activity completely
same,%SA (percentage specific activity of SapM),[1]; [14],0%
same,IC50,"[1]; pNPP assay, dose-response",8.2 ± 1 µM
same,IC50,"[5]; pNPP assay, pH 5.5, read-out: IC50 PTP1B",> 100 µM
same,IC50,"[6]; pNPP assay, pH 5.5, read-out: IC50 VHR",> 100 µM
same,mechanism of inhibition of SapM,[7],uncompetitive inhibitors
same,binding to SapM by MST,[8],confirmed
same,EC50,"[8]; Bivalent fit EC50 (1), tighter binding mode",0.59 µM
"N#Cc1c2nc3ccccc3nc2n2ccc(NC(=O)c3cccs3)cc12 [Compound 4, HI-TOPK-32]",concentration at which compound precipitates,[9],> 100 µM
same,%SA (percentage specific activity of SapM),[1],20.5 ± 3.7%
"O=C1O[C@H]([C@@H](O)CO)C(O)=C1OP(=O)(O)O [Compound 2P-AC, 2-phospho-L-ascorbic acid]",IC50,[10],116 ± 1.02 µM
same,IC50,[2],> 200 µM
"N#C/C(=C\c1ccc(O)c(O)c1)C(N)=O [Compound 16, Tyrphostin AG 99]",%SA (percentage specific activity of SapM),[1]; [14],58.3 ± 0.6%
"O=C(O)c1cc(O)c(O)c(O)c1 [Compound 29, Gallic acid]",IC50,[3]; pNPP assay,> 100 µM
same,IC50,[4]; pNPP assay,> 100 µM
same,remaining activity at 100 µM,[1]; [14],30.7 ± 3.6%
same,inhibition at 100 µM,[1]; compounds at 100 µM,~70%
same,IC50,"[1]; pNPP assay, dose-response",63 ± 1.5 µM
"O=[N+]([O-])c1ccc(Oc2ccc(Br)cc2)c(C(O)P(=O)(O)O)c1 (centres unmarked) [Compound 6, RWJ-60475]",IC50,[3],> 100 µM
same,IC50,[4],> 100 µM
same,%SA (percentage specific activity of SapM),[1],46.6 ± 0.9%
same,IC50,[1],41.9 ± 1.1 µM
"N[C@H](C(=O)O)[C@H](O)c1ccc(O)c(O)c1 [Compound 27, L-DOPS]",remaining activity at 100 µM,[1]; [14],85.9 ± 4.2%
"N#CC(C#N)=Cc1ccc(O)cc1 [Compound 12, Tyrphostin 8]",%SA (percentage specific activity of SapM),[1],104.2 ± 4.2%
same,inhibition of SapM activity (reduction in SA),[1]; 100 µM,less than 21%
"N#C/C(=C\c1ccc(O)c(O)c1)C(=O)c1ccc(O)c(O)c1 [Compound 11, Tyrphostin AG 538]",%SA (percentage specific activity of SapM),[1]; [14],100.2 ± 0.3%
"C[C@H](O)[C@H](O)[C@H]1CNc2[nH]c(N)nc(=O)c2N1.Cl.Cl [Compound 5, (6R)-BH4, reference compound]",%SA (percentage specific activity of SapM),[1]; [14],33.3 ± 0.3%
same,IC50,"[1]; pNPP assay, dose-response",73.9 ± 1.2 µM
Tyrphostin AG 974 [Compound 17],%SA (percentage specific activity of SapM),[1]; [14],71.9 ± 1.4%
"CC(C)=CC[C@@H](O)C1=CC(=O)c2c(O)ccc(O)c2C1=O [Compound 21, Shikonin]",remaining activity at 100 µM,[1]; [14],88.9 ± 4.3%
"CCCCCCCCCCCC(=O)c1c(O)c(C(=O)CCCCCCCCCCC)c(O)c(C2CC(c3ccc(O)cc3)Oc3cc(O)ccc32)c1O (centres unmarked) [Compound 3, YM-26734]",IC50,[3],> 100 µM
same,IC50,[4],> 100 µM
same,%SA (percentage specific activity of SapM),[1],0%
same,IC50,[1],19.8 ± 1.1 µM
same,effect on SapM enzyme activity,[1],completely abolished the enzymatic activity
"NC(Cc1cc(O)c(O)cc1O)C(=O)O (racemic) [Compound 20, 6-Hydroxy-DL-DOPA]",inhibition of SapM activity (reduction in SA),[1]; compounds at 100 µM,~ 30%
same,%SA (percentage specific activity of SapM),[1]; [14],71.7 ± 3.4%
"Cc1cc(O)c2c(c1)C(=O)c1cc(O)cc(O)c1C2=O [Compound 25, Emodin]",remaining activity at 100 µM,[1]; [14],68.6 ± 7.2%
same,inhibition at 100 µM,[1]; compounds at 100 µM,~30%
"Oc1cc(O)c2c(c1)O[C@H](c1ccc(O)c(O)c1)[C@H](O)[C@H]2c1c(O)cc(O)c2c1O[C@H](c1ccc(O)c(O)c1)[C@H](O)C2 [Compound 31, Procyanidin B2]",remaining activity at 100 µM,[1]; [14],100 ± 14.5%
"Oc1cc(O)c2c(c1)O[C@@H](c1cc(O)c(O)c(O)c1)[C@H](O)C2 [Compound 30, (−)-Gallocatechin]",remaining activity at 100 µM,[1]; [14],60.4 ± 6.4%
same,inhibition at 100 µM,[1]; compounds at 100 µM,~40%
"O=c1cc(-c2ccc(O)cc2)oc2cc(O)cc(O)c12 [Compound 22, Apigenin]",remaining activity at 100 µM,[1]; [14],103 ± 1.1%
"N#CC(C#N)=C(N)/C(C#N)=C/c1ccc(O)cc1 [Compound 9, Tyrphostin AG 112]",inhibition of SapM activity (reduction in SA),[1]; compounds at 100 µM,less than 21%
same,%SA (percentage specific activity of SapM),[1]; [14],88.7 ± 1.7%
"N#CC(C#N)=Cc1cc(O)c(O)c(O)c1 [Compound 14, Tyrphostin AG 82]",IC50,[3]; pNPP assay,23.7 ± 1.1 µM
same,IC50,[4]; pNPP assay,> 100 µM
same,remaining activity at 100 µM,[1]; [14],0%
same,effect on SapM enzyme activity,[1]; compounds at 100 µM,completely abolished enzyme activity; also recorded: abolished enzyme activity completely
same,IC50,"[1]; pNPP assay, dose-response",14.5 ± 1 µM
same,mechanism of inhibition of SapM,[7],uncompetitive inhibitors
"N#CC(C#N)=Cc1ccc(O)c(O)c1 [Compound 7, Tyrphostin 23]",remaining activity at 100 µM,[1]; [14],73.5 ± 3.1%
same,inhibition at 100 µM,[1]; compounds at 100 µM,30 to 50%
"CC(C)(C)c1cc(/C=C(\C#N)C(N)=S)cc(C(C)(C)C)c1O [Compound 8, Tyrphostin AG 879]",remaining activity at 100 µM,[1]; [14],78.7 ± 6.6%
same,inhibition at 100 µM,[1]; compounds at 100 µM,< 21%
"O=c1oc2c(cc1O)oc(=O)c1cc(O)c(O)c(O)c12 [Compound 2, Galloflavin]",IC50,[3]; pNPP assay,55.2 ± 1.1 µM
same,IC50,[4]; pNPP assay,> 100 µM
same,intracellular burden of ΔsapM,[11],did not further reduce the intracellular burden
same,remaining activity at 100 µM,[1]; [14],0%
same,effect on SapM enzyme activity,[1]; compounds at 100 µM,completely abolished the enzymatic activity; also recorded: inhibits SapM activity completely
same,IC50,"[1]; pNPP assay, dose-response",9.3 ± 1.1 µM
same,IC50,[5],> 100 µM
same,IC50,[6],> 100 µM
same,mechanism of inhibition of SapM,[7],uncompetitive inhibitors
same,binding to SapM by MST,[8],confirmed
same,EC50,[8]; read-out: Single species dose response EC50,32 ± 16 µM
same,Mtb intracellular burden vs DMSO control,[12],significant (****p < 0.0001) reduction
same,intracellular burden of wild-type M. bovis BCG,[13],reduced the intracellular burden
"O=c1c(-c2ccc(O)cc2)coc2cc(O)cc(O)c12 [Compound 24, Genistein]",remaining activity at 100 µM,[1]; [14],84.1 ± 6.4%
